The source of these data is US7098237B1, “Remedies for ischemia reperfusion injury” (Shionogi & Co., Ltd., priority 1998, dated 2006).

Test [1] concerns lung injury after small intestine ischemia reperfusion. The following applies: Am. J. Physiol., 268: G397, 1995; cited from earlier work.
Test [2] concerns Total Hepatic Vascular Exclusion Model (liver ischemia reperfusion). Description: Hepatic function related factors (AST, ALT, LDH) by administration after ischemia. In kind it is in vivo, Beagle dogs. The following applies: 0.2 mg/kg/hr continuous i.v. for one hour from 20 minutes before reperfusion to 40 minutes after reperfusion. The text has this:
(§1) Beagle dogs (female, 10 to 12 kg) are used for experimental animals. Under the control of general anesthesia by inserting a tube into the trachea, a bypass was formed between the portal vein, femoral vein and external jugular vein. […] An auxiliary circulation is applied during this two hour's operation. Ischemia is continued for two hours, and reperfusion of the blood is resumed by releasing the clump. Various physiological changes are confirmed under laparotomy until three hours after reperfusion and thereafter abdomen is sutured (the method for maintaining anesthesia during this period follows the existing protocol, and fluctuation of the blood pressure and the like are not corrected by different anesthetic methods). The blood is collected from the peripheral artery to measure AST, ALT and LDH as indexes of the hepatic functions. Survival at two weeks after the surgery is confirmed.
(§2) The experiments were carried out by the same method as in Example 1. A dosage of 0.2 mg/kg/hr of the compound (1) was administered by continuous intravenous injection through the peripheral vein for one hour from 20 minutes before blood reperfusion to 40 minutes after the reperfusion.

The test system is the same in test [3]. Description: Hepatic function related factors (AST, ALT, LDH) by administration before ischemia, Total Hepatic Vascular Exclusion Model. In kind it is in vivo, Beagle dogs. The following applies: 0.2 mg/kg/hr continuous i.v. for one hour before ischemia; 2 h ischemia then reperfusion; peripheral artery blood.
From the text: as §1, with “is” for “was”, “methods).” for “methods). The blood is collected from the peripheral artery to measure AST, ALT and LDH as indexes of the hepatic functions.”
The test compound is administered before and after warm ischemia. The compound is administered by intravenous injection.
Various factors related to the hepatic function and blood flow of hepatic tissues were measured by sampling over time from the peripheral artery and hepatic vein.
as §1
The experimental group is divided into two groups with and without administration of the compound (1). […]

Test [4] shares this test system. Description: Blood flow in the hepatic tissue by administration after ischemia (laser Doppler method). In kind it is in vivo, Beagle dogs. The following applies: 0.2 mg/kg/hr continuous i.v. for one hour from 20 minutes before reperfusion to 40 minutes after reperfusion. As to the method:
(§3) The blood flow in the hepatic tissue was measured using a laser Doppler method.
as §2
The blood flow in the hepatic tissue was measured by the same method as in Examples 2 and 3.

For test [5] the test system is unchanged. Briefly: Blood flow in the hepatic tissue by administration before ischemia (laser Doppler method). In kind it is in vivo, Beagle dogs. The following applies: 0.2 mg/kg/hr continuous i.v. for one hour before ischemia.
From the text: as §1
A dosage of 0.2 mg/kg/hr of the compound (1) was administered by continuous intravenous injection through the peripheral vein during the period of one hour from before ischemia to the occurrence of ischemia.
as §3

As for `CCN(CC)CCCC(C)Nc1c2ccc(Cl)cc2nc2ccc(OC)cc12` (stereo not drawn) [quinacrine], in test [1], the “occurrence of lung injury accompanied by reperfusion of the small intestine” value was “can be prevented”.

Take `CCc1c(C(=O)C(N)=O)c2c(OCC(=O)[O-])cc(C)cc2n1Cc1ccccc1.[Na+]` [compound (1)]: in test [2], the “ALT value compared with the control group (FIG. 6)” value was “significantly suppressed”, the “AST value compared with the control group (FIG. 5)” value is on record as “significantly suppressed” and the “LDH value compared with the control group (FIG. 7)” value is given as “significantly suppressed”. Besides, in test [3], the “ALT value compared with the control group (FIG. 2)” value was “significantly suppressed”, the “AST value compared with the control group (FIG. 1)” value is on record as “significantly suppressed” and the “LDH value compared with the control group (FIG. 3)” value was “significantly suppressed”. Besides, the “blood flow after reperfusion compared with the control group (FIG. 8)” value in test [4] was “significantly increased”. Also, the “blood flow in the liver after reperfusion compared with the control group (FIG. 4)” value in test [5] is recorded as “significantly increased”.
